The values below come from PMC7961786, “Magic Peptide: Unique Properties of the LRR11 Peptide in the Activation of Leukotriene Synthesis in Human Neutrophils” (International Journal of Molecular Sciences, 2021).

Oligonucleotides are written 5' to 3', each unit as a sugar letter and its base; * is a phosphorothioate linkage, no mark a phosphodiester; rarer units and linkages stand in square brackets, end groups in braces. Plain capitals give the bases only. d = 2'-deoxy (DNA)

The subject of data set [1] is cells, CpG-ODN delivery. As to conditions: ref [43],[44]; cited from earlier work. The source says:
(§1) LRR11, like LL-37, belongs to the group of cationic antimicrobial peptides, which are characterized by high content of hydrophobic residues (~40%) and overall positive charge due to the increased content of Arg and Lys residues. They block many functions of LPS [39, 40], interact with intracellular DNA, and mediate DNA uptake and transport in mammalian cells.

Data set [2] deals with telomeric G-quadruplex DNA. The note with it: ref [42]; cited from earlier work.
From the text: as §1

The test system of data set [3] is TLR9 signaling. As to conditions: ref [25]; cited from earlier work.
For data set [4], the system named is human neutrophils (PMNLs), 5-LOX product synthesis. Description: 5-LOX metabolite synthesis in human neutrophils stimulated with opsonized S. typhimurium (HPLC). Type of data set: cell-based. On the procedure:
Figure 1 Effects of LRR11 and ODNs on the formation of LTB4 (A,B) and the sum of 5-LOX metabolites (ω-OH-LTB4, LTB4 and its isomers, and 5-HETE) (C) in human PMNLs. PMNLs (2 × 10^7) were incubated for 15 min at 37 °C without (black bars) or with 1 μM LRR11 (A, LRR11_first); then ODNs and LRR11 or LPS were added; various ways of adding ODN and LRR11 peptide are indicated. In control samples, Hanks’ solution was added instead of ODNs. After 20 min, 0.5 × 10^9 S. typhimurium bacterial cells were added for a further 15 min. The 5-LOX products were determined using HPLC. Values indicate mean ± SEM of five independent experiments performed in duplicate. * p < 0.05, ** p < 0.01, *** p < 0.005, compared with the control. # p < 0.05, ## p < 0.01 for pairs of data compared as indicated by two-way ANOVA followed by Tukey’s multiple comparison test.
Figure 3 Synthesis of the 5-LOX metabolites in PMNLs exposed to opsonized S. typhimurium bacteria in the presence of the RAGE antagonist FPS-ZM1. PMNLs (2 × 10^7) were incubated for 15 min at 37 °C without additives or with 0.15 µM FPS-ZM1, for the next 20 min the mixture was incubated with 1 µM ODNs without (black bars) or with 1 µM LRR11 (gray bars) before adding 5 × 10^8 S. typhimurium for 15 min. In control samples, Hanks’ solution was added instead of ODNs. The 5-LOX products were determined using HPLC. Graphical data are presented for LTB4 (A) or the sum of LTB4 and its isomers, ω-OH-LTB4 and 5-HETE, designed as Σ5LOX products (B).
Human neutrophils were isolated from freshly taken citrate-anticoagulated peripheral blood from healthy individuals using standard methods. Leukocyte-rich plasma was prepared by sedimentation of erythrocytes with 3% dextran T-500 at room temperature. For purification of granulocytes, centrifugation through Ficoll-Paque (density 1.077 g/mL) was used, followed by hypotonic lysis of the remaining erythrocytes. […] All methods were performed in accordance with the relevant instructions and regulations of the Ministry of Health of the Russian Federation and local legislation.
Bacteria (S. typhimurium IE 147 strain) obtained from the Collection of Gamaleya National Research Center of Epidemiology and Microbiology (Moscow, Russia) were grown in Luria–Bertani broth to a concentration of 1 × 10^9 colony-forming units (CFU)/mL. The bacteria were collected by centrifugation at 2000 g and opsonized immediately before the experiment for 30 min in 20% (v/v) fresh serum from the same donor whose blood was used to isolate neutrophils. Repeated centrifugation in Dulbecco’s solution was used to wash the bacteria.
The cell suspension (2 × 10^7 PMNLs in HBSS/HEPES, reaction volume of 6 mL) was cultured for 15 min in an incubator at 37 °C, 5% CO2. Then 1.0 µM ODN with or without 1.0 µM LRR11, or 2 µg/mL LPS, was added as indicated. After 20 min, the cells were stimulated with S. typhimurium (the ratio of bacteria to PMNLs was approximately 20:1) for the next 15 min [3]. The synthesis of 5-LOX metabolites was stopped by adding an equal volume of methanol at −20 °C with prostaglandin B2 as an internal standard. Samples were stored at −20 °C. The denatured cell suspension was centrifuged, and supernatants designated as water/methanol extracts.
(§2) To purify the water/methanol extracts, solid-phase extraction was used on Sep-Pak C18 cartridges (500 mg; Macherey-Nagel, Dueren, Germany), which were conditioned first with methanol, and then with water. Major 5-LOX metabolites were identified by comparing retention times with those of known compounds, as previously described.
Table S1. Effect of Chloroquine on 5-LOX product formation in PMNLs after ODN priming followed by the addition
of opsonized S. typhimurium bacteria.

Data set [5] has the same test system. Also noted: method as in PMID 27036535. The note with it: ref [3]; cited from earlier work.
Data set [6] relates to human neutrophils (PMNLs). Description: Binding and uptake of FAM-labeled ODNs by neutrophils (flow cytometry). Type of data set: cell-based. As to conditions: 0.15 µM FPS-ZM1, 15 min, then 1 µM FAM-ODN 20 min; n = 3; Figure 7. On the procedure:
Figure 6 The LRR11 peptide affects the binding and uptake of ODNs by neutrophilic granulocytes. PMNLs (1 × 10^6/mL) in HBSS/HEPES were incubated for 20 min at 37 °C in 5% CO2 with 1 µM FAM-labeled ODN, supplemented or not with 1 µM LRR11 peptide. Both the total ODN accumulation (red) and its intracellular constituent (black) were analyzed by flow cytometry. Surface fluorescence was quenched by trypan blue (TB) solution. Values represent the means ± SEM of FAM fluorescence intensities (RFU, relative fluorescence units) (n = 8). ** p < 0.01; *** p < 0.005, **** p < 0.001 for specified data pairs, as indicated by two-way ANOVA followed by Tukey’s multiple comparison test. Mean fluorescence intensities of unstained PMNLs were 62 ± 12 and 39 ± 5.6 without or after TB quenching, respectively.
Figure 7 RAGE antagonist effect on oligonucleotide penetration into neutrophil cells. […] Both total oligonucleotide accumulation (A) and its intracellular constituent (B) were analyzed by flow cytometry. The surface fluorescence was quenched by trypan blue solution. Values represent the means ± SEM of FAM fluorescence intensities (RFU) (n = 3). * p < 0.05; […]; *** p < 0.005 for the pair of data specified, as indicated by two-way ANOVA followed by Tukey’s multiple comparison test. Fluorescence intensities of unstained controls were 62 ± 14 and 49 ± 6 without, or after TB quenching, respectively. […]

Data set [7] has as its system PMNLs, 5-LOX product formation. Description: 5-LOX product formation in PMNLs stimulated by calcium ionophore A23187. Type of data set: cell-based, human. As to the method:
Human neutrophils were isolated from freshly taken citrate-anticoagulated peripheral blood from healthy individuals using standard methods. Leukocyte-rich plasma was prepared by sedimentation of erythrocytes with 3% dextran T-500 at room temperature. For purification of granulocytes, centrifugation through Ficoll-Paque (density 1.077 g/mL) was used, followed by hypotonic lysis of the remaining erythrocytes. PMNLs were washed twice in PBS, resuspended at 10^7 cells/mL (96–97% purity, 98–99% viability) in Dulbecco’s PBS containing 1 mg/mL glucose (no CaCl2) and stored at room temperature. All methods were performed in accordance with the relevant instructions and regulations of the Ministry of Health of the Russian Federation and local legislation.
as §2

The test system of data set [8] is PMNLs. Description: Phagocytosis of FITC-labeled S. typhimurium by neutrophils. Type of data set: cell-based, human. The note with it: 1 µM ODN +/- 1 µM LRR11, FITC-labeled S. typhimurium 20 min; n = 3; Figure S2b. On the procedure:
Figure S2b. Influence of LRR11 and ODNs on phagocytic activity of neutrophils. PMNLs supplemented with 1 µM ODN +/- 1 µM LRR11, except for control samples containing HBSS/HEPES instead of ODNs, were incubated for 20 min in Eppendorf tubes at 37 °C in 5% CO2 with continuous stirring. FITC-labeled S. typhimurium were then added for next 20 min, followed by FACS analysis (excitation: 488 nm, emission: 525 nm). Both the relative amounts of PMNLs involved in phagocytosis (A, B) and the fluorescence intensities, reflecting the average number of bacteria captured per cell (C, D), were estimated. To distinguish between internalized and surface-bound bacterial cells, trypan blue at a working concentration of 1 mg/ml, was used to quench the surface FITC fluorescence caused by the attached bacteria. Thus, each series of samples was duplicated to obtain results both without (A, C) and with (B, D) TB quenching, which corresponds to the total interaction and uptake of bacteria. Averaged flow cytometry data are presented, including means ± SEM for the percentages of FITC-positive (i.e., phagocytic) cells (A, B), and mean ± SEM for fluorescence intensities of FITC-positive subpopulations (C, D) (n=3; * p < 0.05; ** p < 0.01 in comparison with corresponding controls, ns – non significant, as indicated by two-way ANOVA followed by Dunnett’s or Tukey’s multiple comparison tests). […]

Data set [9] concerns vascular smooth muscle cells. The note with it: ref [56]; cited from earlier work. The source says: RAGE is shown to bind molecules, known as damage-associated molecular patterns (DAMPs), released by cells that die or are under conditions of inflammation.

Regarding LL-37, the “delivery of bacterial CpG-ODNs to cells” value in [1] is “promotes the rapid delivery of bacterial CpG-ODNs to cells”. For the same molecule, the “complex with telomeric G-quadruplex DNA” value in data set [2] is “forms a complex with telomeric G-quadruplex DNA”.
Turning to `CCN(CC)CCCC(C)Nc1ccnc2cc(Cl)ccc12` (centres unmarked) [Chloroquine], the “inhibition of CpG-ODN–induced cell activation” value in [3] was “known to inhibit CpG-ODN–induced cell activation”. Besides, the “effect of chloroquine on CpG-ODN action on 5-LOX products” value in data set [4] (5 µM Chloroquine, B- and C-class CpG-ODNs, Table S1) was “the effects of B- and C-class CpG-ODNs were not sensitive to chloroquine”. For the same molecule, in data set [4] (Table S1, 2×10^7 PMNLs, 15 min at 37 °C without or with 5 µM Chloroquine, then ODN, after 20 min 0.5×10^9 opsonized S. typhimurium for 15 min, mean ± SEM, three independent experiments), the “Σ 5-LOX metabolites” value turned out to be 19.8 ± 2.7 ng/107 PMNLs. In [5], the “effect of chloroquine on inhibition of 5-LOX product formation by ODN 2216” value was “abrogated by chloroquine”.
`O=C(c1ccc(Cl)cc1)N(Cc1ccccc1)C1CCCCC1` [FPS-ZM1]: the “effect of RAGE antagonist on ODN internalization” value in data set [6] is “suppressed ODN internalization”. The “Σ 5-LOX metabolites” value in data set [7] (150 nM FPS-ZM1 30 min at 37 °C, then 1 µM A23187 10 min, mean ± SEM, three independent experiments) was 438 ± 42 ng/10^7 PMNLs. The “effect of FPS-ZM1 on A23187-induced leukotriene synthesis” value in [7] (150 nM FPS-ZM1, 1 µM A23187) is “did not affect the leukotriene synthesis induced by the calcium ionophore A23187”. Besides, in [4] (0.15 µM FPS-ZM1, S. typhimurium, Figure 3), the “effect of FPS-ZM1 on 5-LOX product formation stimulated by bacterial phagocytosis” value is recorded as “inhibited the 5-LOX product formation stimulated by bacterial phagocytosis”. In data set [4] (150 nM FPS-ZM1, 15 min before 1 µM ODNs, Figure 3, four independent experiments), the “effect of FPS-ZM1 on ODN effects on leukotriene synthesis” value is on record as “strongly reduce the effects of ODNs on leukotriene synthesis”.
Consider “5′-ggTTAGGGTTAGGGTTAGGGTTAGGGggggg-3′ (DNA dG*dG*dTdTdAdGdGdGdTdTdAdGdGdGdTdTdAdGdGdGdTdTdAdGdGdGdG*dG*dG*dG*dG) [G-rich ODN, G-rich ODN containing human telomeric tandem repeats]”, for which the “effect on 5-LOX activity / leukotriene synthesis” value in [4] (ODN alone, 1 µM, 20 min, then opsonized S. typhimurium 15 min, Figure 1, five independent experiments in duplicate) is reported as “increased leukotriene synthesis”. The “effect on bacteria engulfment” value in data set [8] is “only G-rich ODN facilitated the bacteria engulfment”.
Consider `CCCCC/C=C\C[C@@H](O)/C=C/C=C/C=C\[C@@H](O)CCCC(=O)O` [LTB4, leukotriene B4, reference compound], for which the “RAGE expression / LTB4 production in vascular smooth muscle cells” value in data set [9] was “increases RAGE expression in proliferating human vascular smooth muscle cells”.
